Experimental data taken from patent US20190233884A1 (University of Southern California, priority 2016, published 2019).

System: patients with refractory metastatic colorectal cancer (mCRC)
Test: PFS, OS and disease control in the training (evaluation) cohort of refractory mCRC patients receiving TAS-102 (n=52, Japan), by baseline characteristics, SNP genotype and toxicity
Assay type: in vivo, human
Settings: evaluation cohort
Protocol: All patients underwent the treatment in salvage-line setting. […]
(§1) Genomic DNA was extracted from peripheral whole blood in patients of all cohorts using the QIAmp Kit (Qiagen, Valencia, Calif., USA) according to the manufacturer's protocol (www.qiagen.com). The candidate SNPs were genotyped using PCR-based direct DNA sequence analysis by ABI 3100A Capillary Genetic Analyzer and Sequencing Scanner v1.0 (Applied Biosystems). Amplification of extracted DNA was carried out using both forward and reverse primers for each gene polymorphism as shown in Table 1. […] The investigators analyzing SNPs were blinded to the clinical data of the study patients.
The primary endpoint in this study was progression-free survival (PFS), and the secondary endpoints were overall survival (OS) and disease control rate (DCR). PFS was calculated from the date of starting treatment to the first observation of disease progression or death from any cause. If a patient had no disease progression or death, PFS was censored at the date of last follow up. OS was calculated from the date of starting treatment until the date of death from any cause or the date of the last follow-up, at which point OS was censored. The disease control rate (DCR) was defined as the proportion of patients who achieved a stable disease (SD) or […] according to RECISTv1.1. Chi-square test was used to examine the difference in baseline patient characteristics among the three cohorts. Allelic distribution of all SNPs by ethnicity for deviation from Hardy-Weinberg equilibrium and the allelic frequencies of SNPs were tested using the Chi-square tests with one degree of freedom. The associations between candidate SNPs and disease control, and toxicities were examined using contingency tables and Fisher's exact test. The associations of SNPs with PFS and OS were analysed using Kaplan-Meier curves and the log-rank test. Because the true mode of inheritance of candidate SNPs was not established yet, a codominant or dominant genetic model if appropriate was considered.
All patients underwent the treatment in salvage-line setting. […] In all patients, adverse events were graded according to the Common Terminology Criteria for Adverse Events, version 4.0. […]
as §1, with “tested” for “genotyped”, “Biosystems).” for “Biosystems). Amplification of extracted DNA was carried out using both forward and reverse primers for each gene polymorphism as shown in Table 1.”, “data.” for “data of the study patients.”
The primary endpoint in this study was progression-free survival (PFS), and the secondary endpoints were overall survival (OS) and disease control rate (DCR).

[1] = CHEK2 rs2267130 Any C vs T/T (Ref.), multivariable
[2] = CHEK2 rs2267130 Any C vs T/T (Ref.), univariate
[3] = CHEK2 rs2267130 C/C vs T/T (Ref.), multivariable
[4] = CHEK2 rs2267130 C/C vs T/T (Ref.), univariate
[5] = CHEK2 rs2267130 T/C vs T/T (Ref.), multivariable
[6] = CHEK2 rs2267130 T/C vs T/T (Ref.), univariate
[7] = Che1 rs1564796 T/C and C/C grouped together
[8] = FANCD2 rs6792811 G/A and G/G grouped together

Trifluridine/tipiracil [TAS-102]
PD, patients n (%) (BRCA1 rs16941 T/C): 15 (68%)
Disease Control Rate SD, patients n (%) (BRCA1 rs16941 T/T): 7 (37%)
PD, patients n (%) (BRCA1 rs16941 T/T): 12 (63%)
Disease Control Rate SD, patients n (%) (BRCA1 rs799917 A/A): 1 (20%)
PD, patients n (%) (BRCA1 rs799917 A/A): 4 (80%)
Disease Control Rate SD, patients n (%) (BRCA1 rs799917 Any A): 8 (30%)
PD, patients n (%) (BRCA1 rs799917 Any A): 19 (70%)
Disease Control Rate SD, patients n (%) (BRCA1 rs799917 G/A): 7 (32%)
PD, patients n (%) (BRCA1 rs799917 G/A): 15 (68%)
Disease Control Rate SD, patients n (%) (BRCA1 rs799917 G/G): 7 (37%)
PD, patients n (%) (BRCA1 rs799917 G/G): 12 (63%)
Disease Control Rate SD, patients n (%) (BRCA2 rs144848 A/A): 8 (29%)
PD, patients n (%) (BRCA2 rs144848 A/A): 20 (71%)
Disease Control Rate SD, patients n (%) (BRCA2 rs144848 A/C): 6 (46%)
PD, patients n (%) (BRCA2 rs144848 A/C): 7 (54%)
Disease Control Rate SD, patients n (%) (BRCA2 rs144848 Any C): 7 (39%)
PD, patients n (%) (BRCA2 rs144848 Any C): 11 (61%)
Disease Control Rate SD, patients n (%) (BRCA2 rs144848 C/C): 1 (20%)
PD, patients n (%) (BRCA2 rs144848 C/C): 4 (80%)
Disease Control CR/PR/SD, patients n (%) (CHEK2 rs2267130 Any C): 12 (46%)
Median OS (95% CI) (CHEK2 rs2267130 Any C): 8.3 (5.7, 15.6+) months
Median PFS (95% CI) (CHEK2 rs2267130 Any C): 3.4 (2.1, 4.6) months
PD, patients n (%) (CHEK2 rs2267130 Any C): 14 (54%)
HR OS (95% CI) [1]: 0.71 (0.29, 1.77)
HR PFS (95% CI) [1]: 0.49 (0.26, 0.94)
HR OS (95% CI) [2]: 0.71 (0.29, 1.74)
HR PFS (95% CI) [2]: 0.48 (0.25, 0.90)
Disease Control CR/PR/SD, patients n (%) (CHEK2 rs2267130 C/C): 3 (43%)
Median OS (95% CI) (CHEK2 rs2267130 C/C): 5.7 (1.4, 10.7+) months
Median PFS (95% CI) (CHEK2 rs2267130 C/C): 2.7 (0.9, 4.6+) months
PD, patients n (%) (CHEK2 rs2267130 C/C): 4 (57%)
HR OS (95% CI) [3]: 1.31 (0.39, 4.42)
HR PFS (95% CI) [3]: 0.59 (0.23, 1.51)
HR OS (95% CI) [4]: 1.21 (0.37, 3.99)
HR PFS (95% CI) [4]: 0.62 (0.25, 1.58)
Disease Control CR/PR/SD, patients n (%) (CHEK2 rs2267130 T/C): 9 (47%)
Median OS (95% CI) (CHEK2 rs2267130 T/C): 12.4 (6.3, 15.6+) months
Median PFS (95% CI) (CHEK2 rs2267130 T/C): 3.7 (2.1, 5.2) months
PD, patients n (%) (CHEK2 rs2267130 T/C): 10 (53%)
HR OS (95% CI) [5]: 0.56 (0.20, 1.55)
HR PFS (95% CI) [5]: 0.46 (0.22, 0.94)
HR OS (95% CI) [6]: 0.59 (0.22, 1.60)
HR PFS (95% CI) [6]: 0.44 (0.22, 0.89)
Disease Control CR/PR/SD, patients n (%) (CHEK2 rs2267130 T/T): 3 (15%)
Median OS (95% CI) (CHEK2 rs2267130 T/T): 8.1 (4.4, 8.7+) months
Median PFS (95% CI) (CHEK2 rs2267130 T/T): 2.1 (1.6, 2.9) months
PD, patients n (%) (CHEK2 rs2267130 T/T): 17 (85%)
PFS (CHEK2 rs2267130 T/T): 2.1 months
Disease Control Rate SD, patients n (%) (CHEK2 rs22236142 Any C): 7 (27%)
PD, patients n (%) (CHEK2 rs22236142 Any C): 19 (73%)
Disease Control Rate SD, patients n (%) (CHEK2 rs22236142 C/C): 2 (25%)
PD, patients n (%) (CHEK2 rs22236142 C/C): 6 (75%)
Disease Control Rate SD, patients n (%) (CHEK2 rs22236142 G/C): 5 (28%)
PD, patients n (%) (CHEK2 rs22236142 G/C): 13 (72%)
Disease Control Rate SD, patients n (%) (CHEK2 rs22236142 G/G): 8 (40%)
PD, patients n (%) (CHEK2 rs22236142 G/G): 12 (60%)
Disease Control Rate SD, patients n (%) (Che1 rs1045056 T/C): 2 (22%)
PD, patients n (%) (Che1 rs1045056 T/C): 7 (78%)
Disease Control Rate SD, patients n (%) (Che1 rs1045056 T/T): 13 (35%)
PD, patients n (%) (Che1 rs1045056 T/T): 24 (65%)
Disease Control Rate SD, patients n (%) [7]: 3 (25%)
PD, patients n (%) [7]: 8 (67%)
Disease Control Rate SD, patients n (%) (Che1 rs1564796 T/T): 12 (34%)
PD, patients n (%) (Che1 rs1564796 T/T): 23 (66%)
Disease Control Rate SD, patients n (%) (FANCD2 rs2272125 T/G): 3 (50%)
PD, patients n (%) (FANCD2 rs2272125 T/G): 3 (50%)
Disease Control Rate SD, patients n (%) (FANCD2 rs2272125 T/T): 12 (30%)
PD, patients n (%) (FANCD2 rs2272125 T/T): 28 (70%)
Disease Control Rate SD, patients n (%) (FANCD2 rs6792811 A/A): 10 (33%)
PD, patients n (%) (FANCD2 rs6792811 A/A): 20 (67%)
Disease Control Rate SD, patients n (%) [8]: 5 (29%)
PD, patients n (%) [8]: 11 (71%)
Disease Control Rate SD, patients n (%) (PCNA rs25406 A/A): 4 (36%)
PD, patients n (%) (PCNA rs25406 A/A): 7 (64%)
Disease Control Rate SD, patients n (%) (PCNA rs25406 Any A): 12 (44%)
PD, patients n (%) (PCNA rs25406 Any A): 15 (56%)
Disease Control Rate SD, patients n (%) (PCNA rs25406 G/A): 8 (50%)
PD, patients n (%) (PCNA rs25406 G/A): 8 (50%)
Disease Control Rate SD, patients n (%) (PCNA rs25406 G/G): 3 (19%)
PD, patients n (%) (PCNA rs25406 G/G): 13 (81%)
Disease Control Rate SD, patients n (%) (Pin1 rs2233678 G/C): 0%
PD, patients n (%) (Pin1 rs2233678 G/C): 2 (100%)
Disease Control Rate SD, patients n (%) (Pin1 rs2233678 G/G): 15 (34%)
PD, patients n (%) (Pin1 rs2233678 G/G): 29 (66%)
Disease Control Rate SD, patients n (%) (Pin1 rs2233679 Any T): 11 (38%)
PD, patients n (%) (Pin1 rs2233679 Any T): 18 (62%)
Disease Control Rate SD, patients n (%) (Pin1 rs2233679 C/C): 4 (24%)
PD, patients n (%) (Pin1 rs2233679 C/C): 13 (76%)
Disease Control Rate SD, patients n (%) (Pin1 rs2233679 C/T): 8 (36%)
PD, patients n (%) (Pin1 rs2233679 C/T): 14 (64%)
Disease Control Rate SD, patients n (%) (Pin1 rs2233679 T/T): 3 (43%)
